{
  "source": "paper PMC10179080",
  "about": "“In Vivo and In Vitro Characterization of Close Analogs of Compound KA-11, a New Antiseizure Drug Candidate” (International Journal of Molecular Sciences, 2023)",
  "key": {"[1]": {"test_system": "seizure susceptibility in mice", "assay": "Timed ivPTZ seizure threshold test", "assay_type": "in vivo", "method": "The experiments were conducted on adult male albino Swiss mice weighing 22–26 g. The animals were kept in colony cages under standardized laboratory conditions: natural light–dark cycle 12/12 h, temperature 20–24 °C, air humidity 45–65% and free access to tap water and food (chow pellets). After 7 days of adaptation to laboratory conditions, the animals were randomly assigned to experimental groups consisting of 8 mice. The experimental procedures described herein were approved by the Local Ethics Committee in Lublin, Poland (approval numbers: 71/2020 and 13/2021), and were conducted in accordance with EU Directive 2010/63/EU for animal experiments. All efforts were made to minimize animal suffering and to use only the number of animals necessary to produce reliable scientific data according to the 3Rs rule.\nThe timed ivPTZ seizure threshold test was carried out according to the method described by Socała et al.. KA-228 and KA-232 were suspended in a 1% solution of Tween 80 and administered i.p. 30 min before the test. In the experiment with KA-232, two separate control groups were used because the effects of KA-232 at a dose of 50 and 100 mg/kg were determined on different days.\nThe ED50 or TD50 values for tested substances in the acute animal models of seizures were calculated using the computer log-probit analysis. Subsequently, the ED50 and TD50 values (±SEM) were statistically analyzed using one-way analysis of variance (ANOVA) followed by the post hoc Dunnett’s test for multiple comparisons. Differences among values were considered statistically significant if p < 0.05. GraphPad Prism version 8 for Windows (GraphPad Software, San Diego, CA, USA) was used as a statistical software program. The results obtained from the acute ivPTZ test and grip strength test were evaluated by a Student’s t test. Fisher’s exact probability test was used to analyze protection from tonic forelimb and hindlimb extension in the ivPTZ test.\nFigure 7 Effects of KA-11, KA-228 and KA-232 on the threshold for the first myoclonic twitch (A), generalized clonus (B) and forelimb tonus (C) in the ivPTZ test in mice. KA-228 and KA-232 were administered i.p., 30 min before seizure induction. Control animals received vehicle. Data are presented as means ± SD (mg/kg PTZ; n = 9–14 animals; the n value varies between groups because some animals were excluded from the study due to unsuccessful catheterization of the vein). The statistical significance for KA-228 and KA-232 was evaluated by a Student’s t test. Data for KA-11 were used from Socała et al. and re-analyzed using one-way ANOVA followed by Dunnett’s post hoc test. * p < 0.05, ** p < 0.01, *** p < 0.001, **** p < 0.0001 vs. the vehicle-treated group (GraphPad Prism 8)."}, "Na^+ channel (site 2)": {"test_system": "Na^+ channel (site 2)", "assay": "Radioligand binding, Na+ channel (site 2)", "design": "species or system rat", "settings": "10 µM", "method": "Dysfunction of both sodium and calcium ion channels is known to be one of the crucial reasons behind the pathogenesis of seizures. Consequently, these ion channels are molecular targets for several clinically important ASDs such as lacosamide, lamotrigine, carbamazepine, oxcarbazepine and compounds currently under preclinical and clinical studies. Thus, for KA-228 and KA-232, we tested herein their binding profile toward the aforementioned ion channels at concentrations of 10 and 100 µM (Table 3). […] Apart from in vitro studies focused on explaining the mechanism of action, KA-232 was additionally tested for its interaction with the potassium channel (hERG) which is recognized as one of the most important ‘off-targets’ responsible for harmful arrhythmogenic activity. Thus, the interaction of potential drug candidates with hERG must be excluded at an early stage of development.\nBinding studies were carried out commercially in Eurofins Laboratories (Poitiers, France or New Taipei City, Taiwan)."}, "[2]": {"assay": "Metabolic stability in human liver microsomes", "assay_type": "in vitro ADME", "settings": "pH 7.4, 120 min, TRIS buffer pH 7.4, 37 °C, read-out: Metabolic stability (% remaining after incubation with HLMs)", "method": "(§1) The assays and protocols used for evaluating the KA-232 ADME-Tox parameters were similar to those described previously for compound KA-11 [6].\nFigure S3 The MetaSite 6.0.1. software prediction of the most probably sites of KA-232\nmetabolism. The darker red color - the higher probability to be involved in the metabolism\npathway. The blue circle marked the site of compound with the highest probability of metabolic\nFigure S4 UPLC spectra after 120 min incubation of compound KA-232 with human liver\nmicrosomes in TRIS buffer pH=7.4 at 37 °C.\nreaction mixture. Three metabolites M1, M2 and M3 were identified as well as the products\n(m/z= 382.18, m/z=445.23) of compound degradation in physiological buffers (see also Figure […]"}, "neuroblastoma SH-SY5Y": {"test_system": "neuroblastoma SH-SY5Y", "assay": "Neurotoxicity, SH-SY5Y cell viability", "assay_type": "cell-based, human", "excerpt": "as §1\nFigure 9 The effect of KA-232 and the reference drug ketoconazole (KE) on CYP3A4 activity (A). The effect of KA-232 and the reference drug quinidine (QD) on CYP2D6 activity (B). The effect of KA-232 and the reference cytostatic drug doxorubicin (DX) on the HepG2 cell line (C) and the SH-SY5Y cell line (D) viability. Statistical significance (* p < 0.05, **** p < 0.0001) was analyzed by Graph Pad Prism 8 software using one-way ANOVA and Bonferroni’s Multiple Comparison Post Test."}, "[3]": {"settings": "50 mg/kg i.p., 30 min before ivPTZ"}},
  "data": [
    {"smiles": "CC(C(=O)N1CCN(c2cccc(C(F)(F)F)c2)CC1)N1C(=O)CC(N(C)C)C1=O.Cl", "note": "(centres unmarked) [KA-232, 3-(Dimethylamino)-1-(1-oxo-1-(4-(3-(trifluoromethyl)phenyl)piperazin-1-yl)propan-2-yl)pyrrolidine-2,5-dione hydrochloride]", "values": [
      {"measurement": "effect on threshold for forelimb tonus", "setting": "[1]; [3]", "value": "did not significantly affect"},
      {"measurement": "effect on threshold for generalized clonus", "setting": "[1]; [3]", "value": "did not significantly affect"},
      {"measurement": "effect on threshold for the first myoclonic twitch", "setting": "[1]; [3]", "value": "did not significantly affect"},
      {"measurement": "mice in which hindlimb tonus did not occur", "setting": "[1]; 50 mg/kg i.p., p < 0.01 vs. control", "value": "5 out of 9"},
      {"measurement": "effect on threshold for clonic seizures", "setting": "[1]; 100 mg/kg i.p., p < 0.0001", "value": "slightly raised"},
      {"measurement": "effect on threshold for myoclonic seizures", "setting": "[1]; 100 mg/kg i.p., p < 0.001", "value": "slightly raised"},
      {"measurement": "mice in which forelimb tonus was completely abolished", "setting": "[1]; 100 mg/kg i.p., p < 0.01 vs. control", "value": "7 out of 11"},
      {"measurement": "% Inhibition of Control Specific Binding", "setting": "Na^+ channel (site 2)", "value": 3.8, "unit": "%"},
      {"measurement": "remaining at 2 h", "setting": "[2]", "value": "~73", "unit": "%"},
      {"measurement": "SH-SY5Y viability (% of control ± SD)", "setting": "neuroblastoma SH-SY5Y; 10 µM", "value": "99.44 ± 5.89 % of control"},
      {"measurement": "neurotoxic effect on SH-SY5Y cell line", "setting": "neuroblastoma SH-SY5Y; all used doses", "value": "no neurotoxic effect"}
    ]}
  ]
}
